In PubChem BioAssay (NCI):
“And” between values parts separate entries of the source, which are not always exact repeats. Equal values may be shown once.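 Growth conditions: 96-well plates. Treatment: test compound, 48 hours, 5 concentrations. Analysis: linear interpolation between bracketing concentrations; unreached endpoints set to highest concentration. At the GI50, growth is halved. TGI: concentration producing complete growth inhibition.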

Legend:
Assay in all cases: NCI anticancer screen, dose series, 48 h
[1] = tested on: 786-0 renal
[2] = tested on: A549 NSCLC
[3] = tested on: CAKI-1 renal
[4] = tested on: MALME-3M melanoma
[5] = tested on: OVCAR-5 ovarian
[6] = tested on: OVCAR-8 ovarian
[7] = tested on: SK-MEL-5 melanoma
[8] = tested on: SR leukemia
[9] = tested on: EKVX NSCLC
[10] = tested on: HCT-15 colon

Row | Structure (SMILES) | GI50 [1] | TGI [1] [µM] | GI50 [2] | TGI [2] [µM] | GI50 [3] | TGI [3] [µM] | GI50 [4] | TGI [4] [µM] | GI50 [5] | TGI [5] [µM] | GI50 [6] | TGI [6] [µM] | GI50 [7] | TGI [7] [µM] | GI50 [8] [µM] | TGI [8] [µM] | GI50 [9] | TGI [9] [µM] | GI50 [10] | TGI [10] [µM]
1 | N#CCN/C=C\C(=O)c1ccc(Cl)cc1 | 33.4 µM | > 100 | > 100 µM | > 100 | 30.1 µM | > 100 | 17.9 µM | 53.6 | 37.6 µM | 97.3 | 38.4 µM | > 100 | 17.6 µM | 38.8 | 11.5 | 44.1 |  |  |  | 
2 | COc1ccc(/C=N\Nc2ccc([N+](=O)[O-])cn2)cc1OC | 3.46 µM | > 100 |  |  |  |  | > 100 µM | > 100 | > 100 µM | > 100 | > 100 µM | > 100 | > 100 µM | > 100 | > 100 | > 100 | > 100 µM | > 100 | > 100 µM | > 100
3 | CC(C)(C)C1CCC2c3c([nH]c4ccccc34)C3C(=O)N(c4ccccc4)C(=O)C3C2C1 (stereo unspecified) |  | 26 |  | 46 |  |  |  | 7.31 |  | > 100 |  | 17.8 |  |  |  |  |  | 55.3 |  | > 100
4 | C=C(Nc1ccc([N+](=O)[O-])cc1[N+](=O)[O-])c1c/c(=N\NC(N)=S)c2ccccc2o1 |  | > 100 |  | > 100 |  | > 100 |  |  |  | > 100 |  | > 100 |  | > 100 |  | 68.7 |  | > 100 |  | > 100
5 | CC(C)(C)C(=O)OC12/C(=N/O)CCCCCC1c1ccccc12 (stereo unspecified) |  | 31 |  | 31.6 |  | 24.6 |  | 37.4 |  | 28.7 |  | 33.4 |  | 31.7 |  |  |  |  |  | 33
6 | CC(C)C1=CC23CCC4C(C)(C(=O)O)CCCC4(C)C2CC1C1C(=O)N(c2ccccc2)C(=O)C13 (stereo unspecified) |  | > 100 |  | > 100 |  | > 100 |  | > 100 |  | > 100 |  | > 100 |  | > 100 |  | > 100 |  |  |  | > 100
7 | CCN(CC)CCCC(C)N=C(C1=C(C(=NC(C)CCCN(CC)CC)c2cccc(OC)c2)C(=O)NC1=O)c1cccc(OC)c1 (stereo unspecified) | 1.8 µM | 7.86 | 0.966 µM | 2.08 | 1.66 µM | 8.62 | 1.11 µM | 2.07 |  |  | 1.18 µM | 6.9 | 0.888 µM | 1.66 | 1.36 | 4.31 |  |  | 1.47 µM | 5.53
8 | CCOC(=O)C(C)(C)Oc1ccc(/C=C/C(=O)c2ccc(Cl)cc2)cc1 |  | 30.9 |  | > 100 |  |  |  | 34.6 |  |  |  | 41.3 |  | 28.3 |  | > 100 |  | > 100 |  | 34.3
9 | Cc1c(C(=O)/C=C/c2ccc(N(C)C)cc2)c(=O)n(-c2ccccc2)n1C |  | > 100 |  | > 100 |  | > 100 |  | > 100 |  | > 100 |  | > 100 |  |  |  |  |  | > 100 |  | > 100
10 | CO[C@H](C(=O)[C@@H](O)[C@@H](C)O)[C@@H]1Cc2cc3cc(OC4CC(OC5CC(O)C(O)C(C)O5)C(O)C(C)O4)c(C)c(O)c3c(O)c2C(=O)[C@H]1OC1CC(OC2CC(OC3CC(C)(O)C(O)C(C)O3)C(O)C(C)O2)C(O)C(C)O1 (stereo partly specified) | 0.0255 µg/mL and 0.0152 µg/mL and 713 nM |  | 0.027 mg/L and 0.0212 mg/L |  | 0.11 mg/L and 0.0722 mg/L |  | 0.0146 mg/L and 0.0159 mg/L |  | 0.0328 mg/L and 0.113 mg/L |  | 0.0281 mg/L and 0.0194 mg/L |  | 0.0199 mg/L |  |  |  | 0.042 mg/L and 0.0335 mg/L |  | 0.286 mg/L and 0.843 mg/L | 
11 | Cc1cc(Cl)ccc1NC(=O)C(=O)C(C(=O)c1ccc2ccccc2c1)C1OC(=O)c2ccccc21 (stereo unspecified) |  | 22.1 |  | 94.5 |  | 35.5 |  | 22.8 |  | 48.4 |  | > 100 |  | 26.9 |  |  |  | 75.9 |  | 50.9
12 | CSc1n[n+]2c(s1)SCCC2 |  | > 100 |  | 92.3 |  | > 100 |  | > 100 |  | > 100 |  | > 100 |  | > 100 |  | > 100 |  |  |  | 
13 | COc1cc(-c2nc(-c3nc4ccccc4[nH]3)cc3c2[nH]c2ccccc23)cc(OC)c1OC | 50.7 µM | > 100 | 3.2 µM | > 100 | 7.03 µM | > 100 | 4.31 µM | > 100 | > 100 µM | > 100 | 2.79 µM | > 100 | 2.99 µM | > 100 | 9.5 | > 100 |  |  | 4.14 µM | > 100
14 | O=C(/C=C/c1ccccc1)n1c(-c2ccc(Cl)cc2)nc2ccccc21 | 2.05 µM | 7.63 | 1.89 µM | 7.3 |  |  | 1.63 µM | 5.74 | 1.74 µM | 4.21 | 0.752 µM | 10.3 | 1.64 µM | 3.12 | 0.379 | 1.88 |  |  | 1.34 µM | 7.06
15 | COC(=O)Cc1ccc(Oc2cnc3cc(F)c(F)cc3n2)cc1 | > 100 µM | > 100 | > 100 µM | > 100 | > 100 µM | > 100 | > 100 µM | > 100 | > 100 µM | > 100 | > 100 µM | > 100 | 32 µM | > 100 |  |  | 94.3 µM | > 100 | > 100 µM | > 100
16 | COc1cccc(/C=C/C(=O)c2ccc(Cl)cc2Cl)c1 | 12.8 µM | 40.7 | 10.5 µM | 22.7 | 13.1 µM | 29.6 |  |  | 13.6 µM | 43.7 | 9.46 µM | 22.7 | 9.38 µM | 17.6 | 0.833 | > 50 | 13.5 µM | 25.8 | 13.9 µM | > 50
17 | COc1cccc(NC(=O)c2sc3nc4c(cc3c2N)C(=O)CCC4)c1 | 0.366 µM | > 100 | 0.103 µM | > 100 | 0.882 µM | > 100 | 0.108 µM | > 100 | 0.635 µM | > 100 | 0.402 µM | > 100 | 0.064 µM | > 100 | 0.133 | > 100 |  |  | 0.0686 µM | > 100
